Measured values from the kinase profiling compilation of Christmann-Franck et al. (2016).

Assays:
Experiment in all cases: split-luciferase competition binding
[1] = molecular target: AKT1 (human) (UniProt P31749); details: compound 10.0 µM
[2] = molecular target: AKT2 (human) (UniProt P31751); details: compound 10.0 µM
[3] = molecular target: AKT3 (human) (UniProt Q9Y243); details: compound 10.0 µM
[4] = molecular target: AURKA (human) (UniProt O14965); details: compound 10.0 µM
[5] = molecular target: AURKB (human) (UniProt Q96GD4); details: compound 10.0 µM
[6] = molecular target: AURKC (human) (UniProt Q9UQB9); details: compound 10.0 µM
AURKC (human), sequence (Q9UQB9 whole entry, looked up): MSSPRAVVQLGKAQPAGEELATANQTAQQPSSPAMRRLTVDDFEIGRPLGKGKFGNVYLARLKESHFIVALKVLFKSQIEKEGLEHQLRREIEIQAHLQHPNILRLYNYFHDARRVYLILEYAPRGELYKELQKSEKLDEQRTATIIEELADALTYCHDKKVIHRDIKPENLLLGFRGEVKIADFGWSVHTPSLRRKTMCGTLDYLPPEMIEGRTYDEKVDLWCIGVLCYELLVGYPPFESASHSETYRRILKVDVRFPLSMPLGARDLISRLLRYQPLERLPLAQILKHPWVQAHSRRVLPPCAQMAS

[7] = molecular target: DMPK (human) (UniProt Q09013); details: compound 10.0 µM
[8] = molecular target: PDPK1 (human) (UniProt O15530); details: compound 10.0 µM
[9] = molecular target: PKN1 (human) (UniProt Q16512); details: compound 10.0 µM
[10] = system: PRKACA (mouse); details: compound 10.0 µM; accession and sequence are those of the human protein
[11] = molecular target: PRKACB (human) (UniProt P22694); details: compound 10.0 µM
[12] = molecular target: PRKCD (human) (UniProt Q05655); details: compound 10.0 µM
[13] = molecular target: PRKCE (human) (UniProt Q02156); details: compound 10.0 µM
PRKCE (human), sequence (Q02156 whole entry, looked up): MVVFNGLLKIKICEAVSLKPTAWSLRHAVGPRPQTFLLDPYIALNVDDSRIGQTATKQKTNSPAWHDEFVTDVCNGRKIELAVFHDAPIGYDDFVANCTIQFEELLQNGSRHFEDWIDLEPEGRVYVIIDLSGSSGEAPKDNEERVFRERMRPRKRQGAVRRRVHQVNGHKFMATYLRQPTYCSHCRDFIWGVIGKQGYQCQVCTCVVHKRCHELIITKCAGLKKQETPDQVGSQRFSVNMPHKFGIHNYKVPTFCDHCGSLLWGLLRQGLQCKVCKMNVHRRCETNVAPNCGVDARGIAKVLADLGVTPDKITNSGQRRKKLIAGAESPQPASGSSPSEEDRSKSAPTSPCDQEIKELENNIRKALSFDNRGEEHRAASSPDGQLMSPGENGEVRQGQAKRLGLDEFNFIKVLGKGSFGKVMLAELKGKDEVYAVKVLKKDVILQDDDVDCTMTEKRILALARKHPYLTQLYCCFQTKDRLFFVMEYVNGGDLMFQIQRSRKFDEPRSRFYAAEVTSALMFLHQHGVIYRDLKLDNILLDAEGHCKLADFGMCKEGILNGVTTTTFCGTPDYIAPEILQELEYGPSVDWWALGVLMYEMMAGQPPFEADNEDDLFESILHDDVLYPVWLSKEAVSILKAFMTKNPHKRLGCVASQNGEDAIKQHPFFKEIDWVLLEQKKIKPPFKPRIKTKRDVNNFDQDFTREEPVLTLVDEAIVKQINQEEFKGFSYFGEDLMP

[14] = molecular target: PRKCG (human) (UniProt P05129); details: compound 10.0 µM
[15] = molecular target: PRKCH (human) (UniProt P24723); details: compound 10.0 µM
[16] = molecular target: PRKCI (human) (UniProt P41743); details: compound 10.0 µM
[17] = molecular target: PRKCQ (human) (UniProt Q04759); details: compound 10.0 µM
PRKCQ (human), sequence (Q04759 whole entry, looked up): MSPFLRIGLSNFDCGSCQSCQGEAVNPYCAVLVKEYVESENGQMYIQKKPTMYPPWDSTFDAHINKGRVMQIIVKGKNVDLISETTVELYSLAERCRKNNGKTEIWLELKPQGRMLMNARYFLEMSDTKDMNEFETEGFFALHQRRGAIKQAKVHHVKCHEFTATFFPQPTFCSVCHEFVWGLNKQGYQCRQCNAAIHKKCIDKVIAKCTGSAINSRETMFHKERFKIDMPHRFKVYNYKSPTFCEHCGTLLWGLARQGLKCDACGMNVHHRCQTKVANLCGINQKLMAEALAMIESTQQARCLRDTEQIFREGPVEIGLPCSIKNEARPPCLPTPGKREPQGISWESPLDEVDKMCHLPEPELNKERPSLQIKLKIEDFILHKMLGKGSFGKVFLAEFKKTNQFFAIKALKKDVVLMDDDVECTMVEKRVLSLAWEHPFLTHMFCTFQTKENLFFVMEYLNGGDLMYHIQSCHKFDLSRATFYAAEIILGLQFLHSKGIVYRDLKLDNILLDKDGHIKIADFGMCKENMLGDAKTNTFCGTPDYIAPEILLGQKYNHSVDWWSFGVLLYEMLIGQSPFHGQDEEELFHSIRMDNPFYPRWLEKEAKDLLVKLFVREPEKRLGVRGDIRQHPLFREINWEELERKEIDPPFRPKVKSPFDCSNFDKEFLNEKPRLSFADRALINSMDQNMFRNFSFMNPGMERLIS

[18] = molecular target: PRKX (human) (UniProt P51817); details: compound 10.0 µM
[19] = molecular target: RPS6KA1 KD1 (human) (UniProt Q15418); details: compound 10.0 µM
RPS6KA1 KD1 (human), sequence (Q15418 whole entry, looked up): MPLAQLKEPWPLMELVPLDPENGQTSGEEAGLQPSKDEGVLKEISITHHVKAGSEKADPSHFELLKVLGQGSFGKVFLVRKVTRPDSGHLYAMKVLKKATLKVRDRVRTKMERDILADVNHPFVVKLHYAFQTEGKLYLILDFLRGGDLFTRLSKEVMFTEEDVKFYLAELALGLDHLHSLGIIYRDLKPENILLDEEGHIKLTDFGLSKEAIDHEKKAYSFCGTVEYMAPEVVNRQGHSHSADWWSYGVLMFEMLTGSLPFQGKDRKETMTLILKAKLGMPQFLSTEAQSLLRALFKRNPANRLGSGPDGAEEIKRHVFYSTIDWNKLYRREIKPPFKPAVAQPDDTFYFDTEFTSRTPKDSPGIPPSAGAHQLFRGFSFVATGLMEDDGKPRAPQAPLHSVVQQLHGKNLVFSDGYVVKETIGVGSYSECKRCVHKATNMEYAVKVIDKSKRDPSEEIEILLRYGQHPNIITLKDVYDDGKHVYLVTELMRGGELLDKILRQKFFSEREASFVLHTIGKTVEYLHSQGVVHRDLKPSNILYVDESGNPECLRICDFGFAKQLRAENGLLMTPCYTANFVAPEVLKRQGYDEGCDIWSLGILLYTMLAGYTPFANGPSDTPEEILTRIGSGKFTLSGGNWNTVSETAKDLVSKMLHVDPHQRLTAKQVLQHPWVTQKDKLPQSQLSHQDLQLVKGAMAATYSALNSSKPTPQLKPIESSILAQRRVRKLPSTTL

[20] = molecular target: RPS6KA2 KD1 (human) (UniProt Q15349); details: compound 10.0 µM
RPS6KA2 KD1 (human), sequence (Q15349 whole entry, looked up): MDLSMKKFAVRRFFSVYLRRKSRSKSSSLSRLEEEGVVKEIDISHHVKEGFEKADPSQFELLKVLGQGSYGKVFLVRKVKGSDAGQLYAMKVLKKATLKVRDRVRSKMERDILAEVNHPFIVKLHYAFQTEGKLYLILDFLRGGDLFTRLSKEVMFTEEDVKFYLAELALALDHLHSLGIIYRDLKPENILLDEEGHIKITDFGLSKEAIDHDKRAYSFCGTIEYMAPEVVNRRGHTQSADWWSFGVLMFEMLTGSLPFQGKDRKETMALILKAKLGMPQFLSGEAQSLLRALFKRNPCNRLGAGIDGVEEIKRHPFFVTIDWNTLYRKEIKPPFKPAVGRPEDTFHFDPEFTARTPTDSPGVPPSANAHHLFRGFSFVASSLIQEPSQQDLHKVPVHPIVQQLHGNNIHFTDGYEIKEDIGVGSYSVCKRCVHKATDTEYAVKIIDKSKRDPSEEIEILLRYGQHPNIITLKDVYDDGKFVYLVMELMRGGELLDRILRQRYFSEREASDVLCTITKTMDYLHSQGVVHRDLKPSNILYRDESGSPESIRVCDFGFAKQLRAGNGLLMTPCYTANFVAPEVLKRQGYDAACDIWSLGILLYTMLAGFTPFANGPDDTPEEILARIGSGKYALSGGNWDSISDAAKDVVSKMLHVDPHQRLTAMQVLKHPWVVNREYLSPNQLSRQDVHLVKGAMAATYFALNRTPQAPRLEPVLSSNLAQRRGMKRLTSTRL

[21] = molecular target: RPS6KA3 KD1 (human) (UniProt P51812); details: compound 10.0 µM
[22] = molecular target: RPS6KA4 KD1 (human) (UniProt O75676); details: compound 10.0 µM
RPS6KA4 KD1 (human), sequence (O75676 whole entry, looked up): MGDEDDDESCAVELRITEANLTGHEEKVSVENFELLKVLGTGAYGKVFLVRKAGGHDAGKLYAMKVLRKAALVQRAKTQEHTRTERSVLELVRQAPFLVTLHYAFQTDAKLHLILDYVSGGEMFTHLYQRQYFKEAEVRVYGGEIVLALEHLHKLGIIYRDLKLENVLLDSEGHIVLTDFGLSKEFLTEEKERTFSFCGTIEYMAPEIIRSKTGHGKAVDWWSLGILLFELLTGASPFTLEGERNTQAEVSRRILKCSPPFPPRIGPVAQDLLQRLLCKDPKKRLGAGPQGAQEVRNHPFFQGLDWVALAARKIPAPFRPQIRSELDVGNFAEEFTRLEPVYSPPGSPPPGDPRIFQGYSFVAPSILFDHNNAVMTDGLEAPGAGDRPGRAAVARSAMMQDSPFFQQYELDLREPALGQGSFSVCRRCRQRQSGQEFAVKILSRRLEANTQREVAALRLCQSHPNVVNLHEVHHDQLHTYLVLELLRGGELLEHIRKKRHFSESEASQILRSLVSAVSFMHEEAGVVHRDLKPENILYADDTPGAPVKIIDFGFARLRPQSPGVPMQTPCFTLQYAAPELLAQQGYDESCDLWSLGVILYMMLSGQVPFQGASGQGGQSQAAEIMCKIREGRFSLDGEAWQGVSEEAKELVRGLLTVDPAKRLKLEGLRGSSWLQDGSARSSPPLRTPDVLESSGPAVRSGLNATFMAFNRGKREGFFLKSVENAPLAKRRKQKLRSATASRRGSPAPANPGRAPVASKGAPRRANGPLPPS

[23] = molecular target: RPS6KA5 KD1 (human) (UniProt O75582); details: compound 10.0 µM
[24] = molecular target: RPS6KA6 KD1 (human) (UniProt Q9UK32); details: compound 10.0 µM
[25] = molecular target: SGK2 (human) (UniProt Q9HBY8); details: compound 10.0 µM
[26] = molecular target: SGK3 (human) (UniProt Q96BR1); details: compound 10.0 µM
[27] = molecular target: STK32B (human) (UniProt Q9NY57); details: compound 10.0 µM
STK32B (human), sequence (Q9NY57 whole entry, looked up): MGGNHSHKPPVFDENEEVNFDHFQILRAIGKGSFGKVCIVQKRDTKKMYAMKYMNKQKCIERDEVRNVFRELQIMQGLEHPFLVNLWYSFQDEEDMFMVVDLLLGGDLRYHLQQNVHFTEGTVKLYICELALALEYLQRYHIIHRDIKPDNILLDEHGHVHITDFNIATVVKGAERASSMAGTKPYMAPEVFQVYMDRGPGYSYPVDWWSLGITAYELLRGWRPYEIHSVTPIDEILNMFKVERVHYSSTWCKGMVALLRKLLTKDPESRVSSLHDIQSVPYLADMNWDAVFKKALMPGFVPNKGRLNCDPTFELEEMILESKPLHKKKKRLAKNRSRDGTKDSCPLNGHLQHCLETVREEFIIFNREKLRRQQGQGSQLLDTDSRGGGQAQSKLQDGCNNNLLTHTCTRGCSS

AKT2 (human), sequence (P31751 whole entry, looked up): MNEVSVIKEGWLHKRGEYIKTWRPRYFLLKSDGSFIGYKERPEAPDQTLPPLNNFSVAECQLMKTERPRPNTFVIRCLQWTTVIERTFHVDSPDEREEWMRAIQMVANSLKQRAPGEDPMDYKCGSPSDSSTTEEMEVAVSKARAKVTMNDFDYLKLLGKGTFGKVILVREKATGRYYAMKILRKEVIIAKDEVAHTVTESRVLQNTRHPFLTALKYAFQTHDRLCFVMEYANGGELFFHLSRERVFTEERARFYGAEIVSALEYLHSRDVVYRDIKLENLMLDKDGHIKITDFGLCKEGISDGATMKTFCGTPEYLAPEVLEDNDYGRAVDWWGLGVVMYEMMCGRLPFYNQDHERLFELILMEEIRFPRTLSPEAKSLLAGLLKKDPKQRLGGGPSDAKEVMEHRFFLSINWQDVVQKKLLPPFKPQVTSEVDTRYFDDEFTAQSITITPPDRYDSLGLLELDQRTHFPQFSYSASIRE

| Structure (SMILES) | inhibition [1] [%] | inhibition [2] [%] | inhibition [3] [%] | inhibition [4] [%] | inhibition [5] [%] | inhibition [6] [%] | inhibition [7] [%] | inhibition [8] [%] | inhibition [9] [%] | inhibition [10] [%] | inhibition [11] [%] | inhibition [12] [%] | inhibition [13] [%] | inhibition [14] [%] | inhibition [15] [%] | inhibition [16] [%] | inhibition [17] [%] | inhibition [18] [%] | inhibition [19] [%] | inhibition [20] [%] | also measured |
| --- | --- | --- | --- | --- | --- | --- | --- | --- | --- | --- | --- | --- | --- | --- | --- | --- | --- | --- | --- | --- | --- |
| CC(=O)c1c(O)c(C)c(O)c(Cc2c(O)c3c(c(C(=O)/C=C/c4ccccc4)c2O)OC(C)(C)C=C3)c1O | 24 | 0 | 0 | 5 | 10 | 8 | 23 | 0 | 0 | 16 | 22 | 6 | 14 | 26 | 0 | 0 | 9 | 16 | 0 | 9 | inhibition [21]: 4%; inhibition [22]: 0%; inhibition [23]: 0%; inhibition [24]: 13%; inhibition [25]: 20%; inhibition [26]: 0%; inhibition [27]: 23% |
| O=c1cc(N2CCOCC2)oc2c1ccc1ccccc12 | 0 | 0 | 0 | 0 | 7 | 14 | 0 | 0 | 0 | 0 | 0 | 0 | 6 | 3 | 0 | 0 | 0 | 0 | 0 | 0 | inhibition [21]: 0%; inhibition [22]: 0%; inhibition [23]: 1%; inhibition [24]: 0%; inhibition [25]: 0%; inhibition [26]: 0%; inhibition [27]: 0% |
| Nc1ccc(-c2cccc3c(=O)cc(N4CCOCC4)oc23)cc1 | 2 | 0 | 0 | 2 | 7 | 14 | 4 | 0 | 0 | 0 | 0 | 0 | 4 | 0 | 1 | 0 | 0 | 2 | 0 | 0 | inhibition [21]: 0%; inhibition [22]: 3%; inhibition [23]: 2%; inhibition [24]: 0%; inhibition [25]: 0%; inhibition [26]: 0%; inhibition [27]: 0% |
| Cc1ccc(NC(=O)c2cccc(N(C)C)c2)cc1NC(=O)c1ccc(O)cc1 | 0 | 0 | 0 | 3 | 0 | 8 | 0 | 0 | 0 | 7 | 0 | 1 | 0 | 0 | 0 | 0 | 0 | 0 | 0 | 0 | inhibition [21]: 0%; inhibition [22]: 0%; inhibition [23]: 0%; inhibition [24]: 0%; inhibition [25]: 0%; inhibition [26]: 0%; inhibition [27]: 0% |

The next lines start with results.

| inhibition [1] [%] | inhibition [2] [%] | inhibition [3] [%] | inhibition [4] [%] | inhibition [5] [%] | inhibition [6] [%] | inhibition [7] [%] | inhibition [8] [%] | inhibition [9] [%] | inhibition [10] [%] | inhibition [11] [%] | inhibition [12] [%] | inhibition [13] [%] | inhibition [14] [%] | inhibition [15] [%] | inhibition [16] [%] | inhibition [17] [%] | inhibition [18] [%] | inhibition [19] [%] | inhibition [20] [%] | Structure (SMILES) | also measured |
| --- | --- | --- | --- | --- | --- | --- | --- | --- | --- | --- | --- | --- | --- | --- | --- | --- | --- | --- | --- | --- | --- |
| 0 | 0 | 0 | 0 | 0 | 0 | 7 | 0 | 0 | 13 | 1 | 6 | 6 | 0 | 10 | 0 | 29 | 6 | 83 | 79 | CC(C)[C@H](CO)Nc1nc(Nc2cc(N)cc(Cl)c2)c2ncn(C(C)C)c2n1 | inhibition [21]: 77%; inhibition [22]: 39%; inhibition [23]: 18%; inhibition [24]: 55%; inhibition [25]: 2%; inhibition [26]: 5%; inhibition [27]: 20% |
| 0 | 0 | 0 | 0 | 0 | 0 | 11 | 0 | 0 | 7 | 0 | 0 | 2 | 0 | 0 | 0 | 0 | 0 | 65 | 48 | CC(C)[C@H](CO)Nc1nc(Nc2cccc(Cl)c2)c2ncn(C(C)C)c2n1 | inhibition [21]: 41%; inhibition [22]: 12%; inhibition [23]: 2%; inhibition [24]: 19%; inhibition [25]: 0%; inhibition [26]: 0%; inhibition [27]: 4% |
